Test [1] addresses Protein farnesyltransferase (Homo sapiens, UniProt P49354+P49356). In words: Inhibitory activity against Farnesyltransferase. It is filed as protein-complex assay.
For test [2], the target named is T1, CAAX prenyl protease 2 (Homo sapiens, UniProt Q9Y256).
T1 sequence (Q9Y256 whole entry): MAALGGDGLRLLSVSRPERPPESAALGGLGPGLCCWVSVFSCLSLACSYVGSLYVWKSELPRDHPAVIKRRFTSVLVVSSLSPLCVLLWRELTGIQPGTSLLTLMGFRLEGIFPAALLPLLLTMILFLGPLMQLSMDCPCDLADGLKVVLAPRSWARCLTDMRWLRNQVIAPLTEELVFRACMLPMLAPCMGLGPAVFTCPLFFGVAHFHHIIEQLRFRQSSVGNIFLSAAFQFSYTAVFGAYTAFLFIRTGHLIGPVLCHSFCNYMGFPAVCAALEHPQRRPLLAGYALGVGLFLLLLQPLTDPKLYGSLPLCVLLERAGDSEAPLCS
In words: Inhibition of recombinant prenyl protein-specific protease Rcel expressed in Sf9 cells.

Test [3] deals with T2, CAAX prenyl protease 2 (Homo sapiens) (UniProt Q9Y256).
T2 sequence (whole entry): T1 sequence (Q9Y256 whole entry)
As to the kind of experiment: Inhibition of recombinant prenyl protein-specific protease Rce1 in Sf9 cells at a concentration of 10 uM.

Test [4] deals with T1, CAAX prenyl protease 2. In words: Inhibition of recombinant prenyl protein-specific protease Rce1 expressed in Sf9 cells […].

Some results are limits rather than exact numbers.

`CCCCC/C=C\C/C=C\CCCCCCCC(=O)NCCC(=O)Nc1cccc(S(=O)(=O)Nc2cccc(C)c2C)c1`: the IC50 was found to be 3.8 µM in test [1] and 14 µM in test [2].

In the case of `CCCCCCCCCCCCCCCC(=O)NCCC(=O)Nc1ccc(C(=O)N[C@@H](CCSC)C(=O)OC)cc1`, the inhibition in test [3] stood at 15%.

As to `CCCCCCCCCCCCCC(=O)NCCC(=O)Nc1cccc(S(=O)(=O)Nc2cccc(C)c2C)c1`, the inhibition in test [3] is < 5%.

In the case of `CCCCCCCCCCCCCCCC(=O)N(C)CCC(=O)Nc1cccc(S(=O)(=O)Nc2cccc(C)c2C)c1`, the inhibition in test [3] is 22%.

`CCCCCCCCCCCCCCC(=O)NCCCC(=O)Nc1cccc(S(=O)(=O)Nc2cccc(C)c2C)c1`: the inhibition in test [3] worked out at 21%.

Take `CCCCCCCCCCCCCCCC(=O)NCCC(=O)Nc1ccc(S(=O)(=O)N[C@@H](CCSC)C(=O)OC)cc1`: the inhibition in test [3] is 28%.

Consider `CCCCCCCC/C=C\CCCCCCCC(=O)NCCC(=O)Nc1cccc(S(=O)(=O)Nc2cccc(C)c2C)c1`, for which, in test [3], the inhibition is < 5%.

Consider `CCCCCCCCCCCCCCCC(=O)NCCC(=O)Nc1cccc(S(=O)(=O)Nc2cccc3ccccc23)c1`, for which the inhibition in test [3] is < 5%.

Take `CCCCCCCCCCCCCCCC(=O)NCCC(=O)Nc1cccc(S(=O)(=O)NCCc2c[nH]c3ccccc23)c1`: in test [3], the inhibition turned out to be 23%.

As to `CCCCCCCCCCCCCCCC(=O)NCCC(=O)Nc1cccc(S(=O)(=O)Nc2cccc(C)c2C)c1`, the inhibition in test [3] came to 18%.

For `CCCCCCCCCCCCCCCCCC(=O)NCCC(=O)Nc1cccc(S(=O)(=O)Nc2cccc(C)c2C)c1`, half-maximal inhibition in test [1] (IC50) required 2.5 µM. In addition, the inhibition in test [3] is < 5%.

Regarding `CCCCCCCCCCCCCCCC(=O)NCCC(=O)Nc1cccc(C(=O)Nc2cccc(C)c2C)c1`, the inhibition in test [3] was determined as 11%.

`CCCCCCCCCCCCCCCCC(=O)NCC(=O)Nc1cccc(S(=O)(=O)Nc2cccc(C)c2C)c1`: the IC50 in test [1] came out at 3.5 µM; in test [4], 7 µM.

Consider `CCCCCCCCCCCCCCCC(=O)NCCC(=O)Nc1cccc(S(=O)(=O)NCc2cccc3ccccc23)c1`, for which, in test [3], the inhibition stood at 20%.

Take `Cc1cccc(NS(=O)(=O)c2cccc(NC(=O)CCNC(=O)/C=C/c3ccc(-c4ccccc4)cc3)c2)c1C`: the values for the IC50 in test [1] and in test [4] were 3.4 µM and 7 µM, respectively.

Take `CCCCCCCCCCCCCCCC(=O)NCC(=O)Nc1ccc(C(=O)N[C@@H](CCSC)C(=O)OC)cc1`: in test [3], the inhibition came out at 22%.

The term IC50 denotes the midpoint of a concentration-inhibition curve. Broadly, the inhibition is the share of the control response that was lost under treatment.

(Values after ChEMBL document CHEMBL1134177, “Non-peptidic, non-prenylic inhibitors of the prenyl protein-specific protease Rce1” (Bioorg Med Chem Lett, 2001).)
